{
  "source": "patent US20120252865A1",
  "about": "“CARBAMATE DERIVATIVES IN PARTICULAR FOR THE TREATMENT OF NEUROLOGICAL DISORDERS” (SIGMA-TAU INDUSTRIE FARMACEUTICHE RIUNITE S.P.A., priority 2009, published 2012)",
  "key": {"pain [1]": {"tested_on": "pain", "details": "Kathuria S., et al, Nat. Med., 2003; cited from earlier work"}, "anxiety": {"tested_on": "anxiety", "details": "Kathuria S., et al, Nat. Med., 2003; cited from earlier work"}, "pain [2]": {"tested_on": "pain", "details": "Kathuria S., et al, Nat. Med., 2003; cited from earlier work", "remark": "listed apart in the source"}, "mechanical hyperalgesia": {"tested_on": "mechanical hyperalgesia", "assay": "Paw withdrawal test for mechanical hyperalgesia (Randall-Selitto analgesimeter)", "format": "in vivo", "details": "rat, 50 mg/kg (FIG. 1)", "method": "The paw withdrawal test was used to assess mechanical hyperalgesia. The nociceptive threshold, expressed in grams, was measured by applying increasing pressure to the left and right hind paws using a Randall-Selitto analgesimeter (Ugo Basile, Varese, Italy). The parameter used to quantify the nociceptive threshold was defined as the pressure (grams) at which the rat withdrew its paw. Rats were habituated to the testing procedures and handling by the investigator in the week prior to the experiment.\nDose response experiments at 10, 30 and 100 mg/kg were also conducted with ST4068, ST3911 and ST3913."}},
  "data": [
    {"compound": "NC(=O)c1cccc(-c2cccc(OC(=O)NC3CCCCC3)c2)c1", "note": "[URB597]", "values": [
      {"measurement": "analgesic efficacy in the rat hot plate test", "setting": "pain [1]", "value": "analgesic efficacy"},
      {"measurement": "efficacy in the zero plus maze animal model of anxiety", "setting": "anxiety", "value": "efficacious"},
      {"measurement": "analgesic efficacy in the rat formalin test", "setting": "pain [2]", "value": "analgesic efficacy"},
      {"measurement": "analgesic activity (nociceptive threshold, paw withdrawal)", "setting": "mechanical hyperalgesia", "value": "did not show any activity"}
    ]}
  ]
}
